“And” between values parts separate entries of the source, which are not always exact repeats. Identical values can stand only once. Like-named read-outs stand apart in the source and are kept apart here.
How the values were obtained:
SuHV-1 = type: cell-based, Suid herpesvirus 1
X-MLV [1] = type: cell-based, Xenotropic Murine leukemia virus
X-MLV [2] = type: cell-based, Xenotropic Murine leukemia virus; conditions: for RF (Reduction Factor) / Sample Titer: 2-8° C.
MMV = type: cell-based, Murine minute virus; conditions: 2-8° C.; for RF (Reduction Factor): 5 mM Tris + 1.0M Arginine-HCl (pH 7.0)
polio virus = conditions: cited from earlier work
X-MLV [3] = assay: TRITON X-100 X-MLV inactivation in GE2-Fcγ-Fcε clarified conditioned media, TCID50 assay; type: cell-based, Xenotropic Murine leukemia virus
Description: Virus inactivation kinetics obtained by exposure to low pH, TRITON® X-100 and arginine were studied using sample process intermediates of a recombinant antibody designated GE2-Fcγ-Fcε. All studies were performed at 2-8° C.
For the TRITON® X-100 inactivation studies, TRITON® X-100 was added to the GE2-Fcγ-Fcε clarified conditioned media (CCM) at concentrations of 0.10% (v/v) and 0.20% (v/v). MABSELECT™ (GE Healthcare Bio-Sciences Corp., Piscataway, N.J., USA) Protein-A chromatography eluates containing GE2-Fcγ-Fcε with the pH adjusted to 3.7 or 3.9 were used as the starting material for the low pH viral inactivation studies. Neutralized MABSELECT™ Eluate buffer (1.0 M arginine-HCl, ˜5 mM Tris, pH 7.3 (+/−) 0.5) and neutralized MABSELECT™ Eluate buffer containing GE2-Fcγ-Fcε were also used as process intermediates for the additional inactivation studies. The process intermediates used in these studies were known to be stable under the examined conditions.
TRITON® X-100 inactivation experiments were performed in duplicate using final concentrations of 0.10% or 0.20% (v/v) TRITON® X-100 in GE2-Fcγ-Fcε clarified conditioned media.

[4] = 5 mM Tris + 1.0M Arginine-HCl (pH 7.0), 2-8° C., 15 min
[5] = 5 mM Tris + 1.0M Arginine-HCl (pH 7.0), 2-8° C., 30 min
[6] = 5 mM Tris + 1.0M Arginine-HCl (pH 7.0), 2-8° C., 60 min
[7] = 5 mM Tris + 1.0M Arginine-HCl (pH 7.0), 2-8° C., 120 min
[8] = 5 mM Tris + 1.0M Arginine-HCl (pH 7.0), 2-8° C., 240 min (non-quenched)
[9] = 5 mM Tris + 1.0M Arginine-HCl (pH 7.0), 2-8° C., 240 min (quenched)
[10] = 1.0 M arginine-HCl, ~5 mM Tris, pH ~7.0, with GE2-Fcγ-Fcε 3.3 mg/mL, 2-8° C., 120 min
[11] = 0.10% (v/v) in GE2-Fcγ-Fcε clarified conditioned media, 2-8° C., 5 min
[12] = 0.10% (v/v) in GE2-Fcγ-Fcε clarified conditioned media, 2-8° C., 45 min
[13] = 0.10% (v/v) in GE2-Fcγ-Fcε clarified conditioned media, 2-8° C., 120 min
[14] = 0.20% (v/v) in GE2-Fcγ-Fcε clarified conditioned media, 2-8° C., 30 min
[15] = 0.20% (v/v) in GE2-Fcγ-Fcε clarified conditioned media, 2-8° C., 45 min

For `N=C(N)NCCC[C@H](N)C(=O)O` [Arginine, arginine], the “Adjusted titer of sample” value (SuHV-1; [4]) was 2.95 Log10 TCID50/mL and 2.89 Log10 TCID50/mL, the “RF (Reduction Factor)” value (SuHV-1; [4]) was 2.30 and 2.11 and the “Titer of quenched sample” value (SuHV-1; [4]) was 1.95 Log10 TCID50/mL and 1.89 Log10 TCID50/mL. For the same compound, the “Adjusted titer of sample” value (SuHV-1; [5]) was “≦1.57 Log10 TCID50/mL”, the “Titer of quenched sample” value (SuHV-1; [5]) was “≦0.57 Log10 TCID50/mL” and the “Adjusted titer of sample” value (SuHV-1; [6]) was “≦1.57 Log10 TCID50/mL”. For the same compound, the “Titer of quenched sample” value (SuHV-1; [6]) was “≦0.57 Log10 TCID50/mL”, the “Adjusted titer of sample” value (SuHV-1; [7]) was “≦1.57 Log10 TCID50/mL” and the “Titer of quenched sample” value (SuHV-1; [7]) was “≦0.57 Log10 TCID50/mL”. The “Adjusted titer of sample” value (SuHV-1; [8]) was “≦1.53 Log10 TCID50/mL”, the “Titer of sample from TCID50 assay” value (SuHV-1; [8]) was “≦1.53 Log10 TCID50/mL” and the “Adjusted titer of sample (Output virus titer)” value (SuHV-1; [9]) was “≦1.57 Log10 TCID50/mL”. For the same compound, the “Titer of quenched sample” value (SuHV-1; [9]) was “≦0.57 Log10 TCID50/mL”, the “exposure time after which SuHV-1 titer was below the assay limit of detection” value (SuHV-1; 1.0 M arginine (pH 7.0), duplicate runs) was 30 min and the “X-MLV Reduction Factor in all of the arginine studies” value (X-MLV [1]; 1 M arginine, with and without GE2-Fcγ-Fcε, 120 min of exposure) was no less than 4.1. The Output titer (X-MLV [1]; 1.0 M arginine-HCl, ~5 mM Tris, pH ~7.0, no GE2-Fcγ-Fcε, 2-8° C., 120 min) was “≦1.17 Log10 TCID50/mL”, the Output titer (X-MLV [1]; [10]) was “≦1.17 Log10 TCID50/mL” and the “RF (Reduction Factor)” value (X-MLV [1]; [10]) was “≧4.2”. The “exposure time after which X-MLV was at, or below, detectable levels” value (X-MLV [1]; neutral solution containing 1 M arginine, Runs 9-12) was 15 min, the “RF (Reduction Factor)” value (X-MLV [2]; 5 mM Tris + 0.10M Arginine-HCl (pH 7.0), 30 min) was 0.2 and 0.3 and the “RF (Reduction Factor)” value (X-MLV [2]; 5 mM Tris + 0.10M Arginine-HCl (pH 7.0), 120 min) was 0.3. The “RF (Reduction Factor)” value (X-MLV [2]; 5 mM Tris + 0.50M Arginine-HCl (pH 7.0), 15 min) was 1.7 and 1.6, the “RF (Reduction Factor)” value (X-MLV [2]; 5 mM Tris + 0.50M Arginine-HCl (pH 7.0), 30 min) was 2.3 and 2.0 and the “RF (Reduction Factor)” value (X-MLV [2]; 5 mM Tris + 0.50M Arginine-HCl (pH 7.0), 60 min) was 2.7 and 2.5. For the same compound, the “RF (Reduction Factor)” value (X-MLV [2]; 5 mM Tris + 0.50M Arginine-HCl (pH 7.0), 120 min) was 3.4 and 3.5, the “RF (Reduction Factor)” value (X-MLV [2]; 5 mM Tris + 0.50M Arginine-HCl (pH 7.0), 120 min, listed as arginine) was 3.4 and 3.5 and the “Sample Titer” value (X-MLV [2]; 15 min) was 5.59 Log10 TCID50/mL and 5.71 Log10 TCID50/mL and 4.10 Log10 TCID50/mL and 4.04 Log10 TCID50/mL. For the same compound, the “Sample Titer” value (X-MLV [2]; 30 min) was 5.71 Log10 TCID50/mL and 5.29 Log10 TCID50/mL and 3.50 Log10 TCID50/mL and 3.68 Log10 TCID50/mL, the “Sample Titer” value (X-MLV [2]; 60 min) was 5.65 Log10 TCID50/mL and 5.29 Log10 TCID50/mL and 3.03 Log10 TCID50/mL and 3.15 Log10 TCID50/mL and the “X-MLV inactivation (in words)” value (X-MLV [2]; pH 7) was “did not occur”. The “RF (Reduction Factor)” value (MMV; 240 min (non-quenched)) was 0.30 and 0.17, the “RF (Reduction Factor)” value (MMV; 240 min (quenched)) was −0.25 and the “Adjusted titer of sample” value (MMV) was 6.83 Log10 TCID50/mL and 7.33 Log10 TCID50/mL. For the same compound, the “Adjusted titer of sample (Output virus titer)” value (MMV) was 7.38 Log10 TCID50/mL and 7.75 Log10 TCID50/mL, the “Titer of quenched sample” value (MMV) was 6.38 Log10 TCID50/mL and 6.75 Log10 TCID50/mL and the “Titer of sample from TCID50 assay” value (MMV) was 6.83 Log10 TCID50/mL and 7.33 Log10 TCID50/mL. The “Adjusted titer of sample” value (MMV; 15 min) was 7.50 Log10 TCID50/mL and 7.25 Log10 TCID50/mL, the “Titer of quenched sample” value (MMV; 15 min) was 6.50 Log10 TCID50/mL and 6.25 Log10 TCID50/mL and the “Adjusted titer of sample” value (MMV; 30 min) was 7.63 Log10 TCID50/mL and 7.38 Log10 TCID50/mL. The “Titer of quenched sample” value (MMV; 30 min) was 6.63 Log10 TCID50/mL and 6.38 Log10 TCID50/mL, the “Adjusted titer of sample” value (MMV; 60 min) was 7.63 Log10 TCID50/mL and 7.75 Log10 TCID50/mL and the “Titer of quenched sample” value (MMV; 60 min) was 6.63 Log10 TCID50/mL and 6.75 Log10 TCID50/mL. For the same compound, the “Adjusted titer of sample” value (MMV; 120 min) was 7.50 Log10 TCID50/mL and 7.75 Log10 TCID50/mL, the “Titer of quenched sample” value (MMV; 120 min) was 6.50 Log10 TCID50/mL and 6.75 Log10 TCID50/mL and the “inactivation of non-enveloped polio virus (in words)” value (polio virus) was “ineffective”.
In the case of `NCC(=O)O` [Glycine, glycine, reference compound], the “Adjusted titer of sample” value (X-MLV [2]; pH 7) is reported as 6.00 Log10 TCID50/mL and 5.50 Log10 TCID50/mL and 5.60 Log10 TCID50/mL and 5.38 Log10 TCID50/mL and 5.63 Log10 TCID50/mL, the “Adjusted titer of sample (Output virus titer)” value (X-MLV [2]; pH 7) is reported as 5.63 Log10 TCID50/mL and 5.88 Log10 TCID50/mL and the “Titer of quenched sample” value (X-MLV [2]; pH 7) is reported as 5.00 Log10 TCID50/mL and 4.50 Log10 TCID50/mL and 4.63 Log10 TCID50/mL and 4.38 Log10 TCID50/mL and 4.88 Log10 TCID50/mL. For the same compound, the “Titer of sample from TCID50 assay” value (X-MLV [2]; pH 7) was 5.60 Log10 TCID50/mL.
In the case of TRITON ® X-100, the “Adjusted titer of sample” value (X-MLV [3]; [11]) is reported as “≦2.00 Log10 TCID50/mL”, the “Titer of quenched sample” value (X-MLV [3]; [11]) is reported as “≦0.70 Log10 TCID50/mL” and the “Adjusted titer of sample” value (X-MLV [3]; [12]) is reported as “≦1.99 Log10 TCID50/mL”. For the same compound, the “Titer of quenched sample” value (X-MLV [3]; [12]) was “≦0.69 Log10 TCID50/mL”, the “Adjusted titer of sample (Output virus titer)” value (X-MLV [3]; [13]) was “≦1.99 Log10 TCID50/mL” and the “RF (Reduction Factor)” value (X-MLV [3]; [13]) was no less than 3.1. For the same compound, the “Titer of quenched sample” value (X-MLV [3]; [13]) was “≦0.69 Log10 TCID50/mL”, the “exposure time after which X-MLV was below detection limits” value (X-MLV [3]; 0.10% and 0.20% TRITON X-100) was 5 min and the “RF (Reduction Factor)” value (X-MLV [3]; 0.20% (v/v) in GE2-Fcγ-Fcε clarified conditioned media, 2-8° C., 15 min) was “≧3.1”. The “Adjusted titer of sample” value (X-MLV [3]; [14]) was “≦1.99 Log10 TCID50/mL”, the “RF (Reduction Factor)” value (X-MLV [3]; [14]) was “≧3.1” and the “Titer of quenched sample” value (X-MLV [3]; [14]) was “≦0.69 Log10 TCID50/mL”. The “Adjusted titer of sample” value (X-MLV [3]; [15]) was “≦1.99 Log10 TCID50/mL”, the “RF (Reduction Factor)” value (X-MLV [3]; [15]) was “≧3.1” and the “Titer of quenched sample” value (X-MLV [3]; [15]) was “≦0.69 Log10 TCID50/mL”. For the same compound, the “RF (Reduction Factor)” value (X-MLV [3]; 0.20% (v/v) in GE2-Fcγ-Fcε clarified conditioned media, 2-8° C., 120 min) was no less than 2.6.

— US8980610B2 (priority 2009, dated 2015)
